Structures are written as SMILES.

The data set concerns human B cells. The conditions noted are these: 500 μM vs. 0 μM hydrogen peroxide.

Take `OO` [hydrogen peroxide]: for the setting “average molecule length and labels/100 kb”, the “average size of the DNA and label incorporation density (FIG. 8B)” value is “clear oxidative damage detection in the form of DSBs and SSBs”. The “DNA size histograms of treated vs. untreated cells (FIG. 8A)” value (triplicate samples) is recorded as “clear shift to smaller fragment sizes”.

(Values after US20140030705A1, “SYSTEMS AND METHODS FOR ASSESSING BIOMOLECULE CHARACTERISTICS” (BioNano Genomics, Inc., priority 2010, published 2014).)
